Results from PMC6522510 (Nature Communications, 2019).

What was measured:
Design in all cases: species or system AML cell lines (8); Primary HTS, single concentration about 10 uM, Cell Titer Glo viability; log10 luminescence, per cent inhibition relative to cycloheximide control
Conditions in all cases: 72 h, relative to cycloheximide control, log10 luminescence; inhibitor
CMS = tested on: CMS
ML-2 = tested on: ML-2
U937 = tested on: U937
MV4-11 = tested on: MV4-11
CHRF288-11 = tested on: CHRF288-11
MOLM-13 = tested on: MOLM-13
CMK = tested on: CMK
M07e = tested on: M07e

SMILES | CMS %inh (CMS) [%] | ML-2 %inh (ML-2) [%] | U937 %inh (U937) [%] | MV4-11 %inh (MV4-11) [%] | CHRF288-11 %inh (CHRF288-11) [%] | MOLM-13 %inh (MOLM-13) [%] | CMK %inh (CMK) [%] | M07e %inh (M07e) [%]
O=C1NC(=N[C@H](CO)Cc2ccccc2)S/C1=C\c1ccc2ncccc2c1 [SJ000581019-2] | 2.2 | 1.703 | 7.541 | 1.969 | 7.52 | 1.796 | 5.29 | 7.526
Nc1c(C(=O)c2cccc(OC[C@H](O)CO)c2)cnn1-c1ccc(F)cc1 [SJ000581020-1] | 0.9092 | 2.034 | 0.3347 | 0.9707 | 2.337 | 0.004587 | 3.324 | 2.292
COc1ccc(F)cc1C(=O)c1cnc(NC2CCN(S(C)(=O)=O)CC2)nc1N [SJ000581021-1] | 25.29 | 16.42 | 26.91 | 23.41 | 14.05 | 27.57 | 28.45 | 26.32
Cn1cc(C2=C(c3c4n(c5ccccc35)CCC(CN)CC4)C(=O)NC2=O)c2ccccc21 (stereo not drawn) [SJ000581022-1] | 0.653 | 3.751 | 3.425 | 5.378 | 0.7803 | 2.979 | 2.783 | 8.854
CS(=O)(=O)CCn1c(=O)c(Oc2ccc(F)cc2F)cc2cnc(NC3CCOCC3)nc21 [SJ000581023-1] | -0.4321 | 0.4592 | -0.5257 | 1.997 | 8.185 | -0.00779 | 0.4611 | 1.483
Cn1c(=O)c(Oc2ccc(F)cc2F)cc2cnc(NC(CO)CO)nc21 [SJ000581024-1] | -1.976 | 0.9662 | 3.277 | 1.357 | -0.0002567 | 0.3413 | -1.172 | 1.393
CC(=O)N[C@@H](Cc1ccc(OP(=O)(O)O)cc1)C(=O)N[C@H]1CCC(=O)N2CCC[C@@H](C(=O)NCc3ccccc3)N2C1=O [SJ000581025-1] | 0.9205 | 0.2617 | 0.2421 | -4.371 | 3.231 | 0.5747 | -3.468 | -1.273
CNCC1CCn2c(c(C3=C(c4cn(C)c5ccccc45)C(=O)NC3=O)c3ccccc32)C1 (stereo not drawn) [SJ000581026-1] | 2.453 | 5.596 | 3.941 | 3.218 | 5.735 | 5.409 | 19.67 | 4.053
COc1cc[nH]c1/C=C1\C(=O)Nc2ccccc21 [SJ000581028-1] | -2.846 | 2.572 | -1.475 | 72.48 | 5.171 | 93.27 | 2.429 | 0.1646
Cn1cc(C2=C(c3cn(CCCN)c4ccccc34)C(=O)NC2=O)c2ccccc21 [SJ000581029-1, RO 31-7549] | -0.005694 | -0.6707 | 0.8505 | 2.189 | 63.26 | 8.447 | 7.447 | -0.4351
COc1cc(F)c(F)cc1C(=O)c1cnc(NC2CCN(S(C)(=O)=O)CC2)nc1N [SJ000581030-1] | 6.337 | 12.87 | 15.86 | 13.02 | 9.313 | 17.32 | 33.04 | 10.16
Cc1ccccc1-n1ncc(C(=O)c2ccccc2)c1N [SJ000581031-1] | -2.229 | 1.074 | 4.01 | -0.9776 | -2.402 | 0.4251 | -0.4181 | 0.1374
Cn1c(=O)c(Cc2ccc(F)cc2F)cc2cnc(NC3CCOCC3)nc21 [SJ000581032-1] | 0.5188 | 0.882 | -0.7764 | 0.6569 | -3.947 | 4.514 | 3.89 | 1.669
Nc1c(C(=O)c2cccc(CCCN3CCOCC3)c2)cnn1-c1ccc(F)cc1 [SJ000581033-1] | -0.1935 | 2.815 | 0.5296 | -0.6007 | 0.5002 | -0.1425 | -2.511 | 1.168
O=C1NC(=NCCc2ccccc2Cl)S/C1=C\c1ccc2ncccc2c1 [SJ000581034-1] | 1.664 | 3.879 | 0.6904 | -0.3328 | -2.34 | 1.218 | -2.328 | 0.7717
CSc1c(C2=C(c3cn(C)c4ccccc34)C(=O)NC2=O)c2ccccc2n1C [SJ000581035-1] | 16.27 | 21.47 | 26.62 | 31.9 | 9.742 | 28.45 | 87.18 | 31.51
CN(C)CC#Cc1cccc(C(=O)c2cnn(-c3ccc(F)cc3)c2N)c1 [SJ000581036-1] | 3.514 | 0.4348 | 6.781 | 0.9409 | -3.732 | 29.95 | 1.135 | 2.548
Nc1c(C(=O)c2cccc(-c3cccnc3)c2)cnn1-c1ccc(F)cc1 [SJ000581038-1] | 0.2916 | 2.13 | 0.8257 | 1.728 | -0.1911 | 1.631 | -3.194 | 5.379
O=c1c(Oc2ccc(F)cc2F)cc2cnc(NC3CCOCC3)nc2n1C1CC1 [SJ000581039-1] | 3.291 | 0.3273 | -0.2909 | 3.055 | 6.117 | 0.2345 | 4.979 | 4.212
Cn1cc(C2=C(c3c([S+](C)[O-])n(C)c4ccccc34)C(=O)NC2=O)c2ccccc21 (stereo not drawn) [SJ000581040-1] | 0.8019 | 2.43 | 0.5237 | 0.5816 | 12.43 | -1.878 | -2.072 | 1.342
Cn1cc(C2=C(c3cn(CCO)c4ccccc34)C(=O)NC2=O)c2ccccc21 [SJ000581041-1] | 9.772 | 20.21 | 14.77 | 18.13 | 72.88 | 54.73 | 80.06 | 13.99
Cn1c(=O)c(Oc2ccc(F)cc2F)cc2cnc(NC3CCC(O)CC3)nc21 (stereo not drawn) [SJ000581046-1] | -2.545 | 1.601 | 2.264 | -0.7465 | 5.265 | 1.486 | -4.641 | 1.519
CC(C)(O)CCc1cccc(C(=O)c2cnn(-c3ccc(F)cc3)c2N)c1 [SJ000581047-1] | 5.394 | 1.278 | -2.635 | -0.34 | 1.391 | -1.69 | -5.065 | 3.158
Cc1[nH]n(-c2ccccc2)c(=O)c1C(=O)c1ccccc1 [SJ000581048-1] | 1.313 | 0.679 | -0.7202 | -2.724 | 3.222 | -1.767 | -9.373 | -0.3361
